Laboratory results reported in a melting point compilation (Tetko et al.; mined from patent text by program, amines drawn as free bases though some values may be those of a salt).

First: Cc1cccc(-n2c(-c3cc(-c4ccncc4)c(N4CCOCC4)s3)nc3ccccc3c2=O)c1
Second: Cc1cccc(-c2nc3ccc(OCCN4CCN(C)CC4)cc3n2Cc2ccccc2)c1
The melting point of the first is higher: 230 to 232 °C for the first, 91 °C for the second.

First: O=C(Cn1cc(Cc2ccccc2)cc(NC(=O)OCc2ccccc2)c1=O)NC(Cc1ccccc1)C(=O)C(F)(F)F (stereo not given)
Second: CC(=O)CC(=S)SCc1cn(C(c2ccccc2)(c2ccccc2)c2ccccc2)nn1
The melting point of the first is lower: 127 to 130 °C for the first, 172 to 173 °C for the second.

Compared with Cc1ccc(-c2ccc3c(c2)C=C(C(=O)Nc2ccc(CN4CCCCC4)cc2)CC(c2ccccc2)O3)cc1 (stereo not given), O=C(NCCOc1ccc(CC(Sc2nc3ccccc3o2)C(=O)O)cc1)c1ccc(-c2ccccn2)cc1 (stereo not given) is lower in melting point: 210 to 211 °C for the first, 66 to 67 °C for the second.

Compared with CC(C)(C(=O)O)C1([N+](=O)[O-])OC2=CC=CC2=CC1c1ccccc1 (stereo not given), CC(C)(C)OC(=O)C(O)c1ccc2c(c1)OC(c1ccccc1)(c1ccccc1)O2 (stereo not given) is lower in melting point: 256 to 258 °C for the first, 153 to 154 °C for the second.

Compared with CCn1ncc2c3noc(-c4ccc(Cl)cc4)c3cnc21, CC(C)c1nnc2ccc(-c3ocnc3-c3c(F)cccc3F)cn12 is lower in melting point: 248 to 250 °C for the first, 176 °C for the second.

First: Cc1nc2cc(NC(=O)c3cc4cc(C(F)(F)F)cnc4n3Cc3ccncc3)ccc2s1
Second: FC(F)(F)c1ccnc(Oc2ccc(CCOc3ncnc4nccnc34)cc2)c1
The melting point of the first is higher: 208 to 210 °C for the first, 172 to 173 °C for the second.

First: COP(=O)(OC)C1CC(c2ccc([N+](=O)[O-])cc2)=NO1 (stereo not given)
Second: O=C1C=CC(=O)N1c1ccc([N+](=O)[O-])cc1
The melting point of the first is lower: 156 to 158 °C for the first, 163 to 165 °C for the second.

First: CCn1c(=O)c2c(C)onc2n(C)c1=O
Second: CCOC(=O)c1cn(CC)c2c(F)c(F)c(F)c(F)c2c1=O
The melting point of the first is lower: 103 to 104 °C for the first, 217 to 220 °C for the second.

Compared with C[C@H](NC(=O)OC(C)(C)C)C(=O)OCC(C)(C)Nc1cccc2c1C(=O)c1ccccc1C2=O, CC(C)NC(=O)OCC1CSC2=C(O1)c1ccccc1C(=O)C2=O (stereo not given) is higher in melting point: 120 °C for the first, 218 to 220 °C for the second.

First: CC(C(=O)O)c1ccc(O[Si](C)(C)C(C)(C)C)cc1 (stereo not given)
Second: CC(C)(C)C(=O)c1cncnc1
The melting point of the first is lower: 52 to 54 °C for the first, 64 to 66 °C for the second.

Compared with Cc1ccc(S(=O)(=O)NN=C2CCCCCCC2)cc1, CC(=O)Nc1cccc2c1C(=O)CCCC2 is higher in melting point: 140 to 143 °C for the first, 155 to 162 °C for the second.

First: N#CC(=Cc1cc(O)c(O)c(Cl)c1)C(=O)Nc1cccc(Cl)c1
Second: CC(=O)Nc1cccc(S(=O)(=O)c2cc(O)c(O)cc2C)c1
The melting point of the first is higher: > 300 °C for the first, 220 to 222 °C for the second.

First: Cc1cc(C)cc(C=CC#N)c1
Second: COc1ccc(C=CC=O)cc1OC
The melting point of the first is lower: 67 to 68 °C for the first, 74 to 77 °C for the second.

First: CCN(CC1CC1)c1c([N+](=O)[O-])cc(C(F)(F)F)c(N)c1[N+](=O)[O-]
Second: CCCc1nc(C)cn1-c1cc(F)ccc1[N+](=O)[O-]
The melting point of the first is higher: 99 to 100 °C for the first, 36 to 39 °C for the second.

Compared with CC#CCOc1ccc(S(=O)(=O)NCCC(=O)NO)cc1, CCCOc1ccc(CC(=O)NCC(=O)OC)cc1Cl is lower in melting point: 118 to 128 °C for the first, 76 to 80 °C for the second.

First: O=C1CC2(C(=O)N1)C(=O)N1CCOc3cc(Cl)cc2c31 (stereo not given)
Second: CCOC(=O)c1c(N2CCOCC2)c2cc(Cl)ccc2n(C)c1=O
The melting point of the first is higher: 260 to 262 °C for the first, 167 to 169 °C for the second.

Compared with CCCCCCCCCCOc1cc2oc3ccc(C(=O)O)cc3c(=O)c2cc1CCC(=O)O, CCCCCCN(CCCCCC)c1c(N[C@@H](Cc2ccc(NC(=O)c3ccccc3)cc2)C(=O)O)c(=O)c1=O is lower in melting point: > 210 °C for the first, 95 to 100 °C for the second.

Going from Cc1cc(-c2ccc(Cl)c(Cl)c2)nc(-c2cccc(-c3ccc(S(N)(=O)=O)s3)c2)n1 to O=c1cnn(-c2cc(Cl)c(C(c3ccc(Cl)cc3)c3nc(-c4ccccc4)no3)c(Cl)c2)c(=O)[nH]1 (stereo not given), the melting point falls from 238 °C to 128 °C.

First: CON=C(C#N)C1=CCCN(OC(=O)Nc2ccccc2)C1
Second: COCn1nnc(NC(=O)C(c2ccccc2)c2ccccc2)n1
The melting point of the first is higher: 128 to 130 °C for the first, 127 to 128 °C for the second.

First: COc1oc(=O)n(-c2ccccc2)c1C
Second: CCOC(=O)C=Cc1ccc(OC(C)c2nc(-c3ccccc3)oc2C)c(OC)c1 (stereo not given)
The melting point of the first is lower: 81 to 83.5 °C for the first, 121 to 122 °C for the second.

First: CC(C)(C)CCCCCCCCCCCC(=O)O
Second: CC(C)(C)C(=O)N1C(=O)C(C)(C)NC(C)(C)C1=O
The melting point of the first is lower: 37 to 39 °C for the first, 100 to 102 °C for the second.

First: CN1CCCC1=Cc1ccc(Br)cc1
Second: Cn1nc(C=O)c(Br)c1C(C)(C)CNC(=O)c1ccccc1
The melting point of the first is lower: 83 to 84 °C for the first, 150 to 151 °C for the second.

First: N#Cc1cc(-c2nc3ccccc3s2)ccc1N
Second: CC(CO)c1ccc(-c2ccccc2F)cc1 (stereo not given)
The melting point of the first is higher: 207 to 211 °C for the first, 73 to 74 °C for the second.

First: CC(ON1C(C)(C)CNC(=O)CC1(C)C)c1ccccc1 (stereo not given)
Second: COc1ccc2c(c1)CCC1CCNC(=O)C(CC(C)N(Cc3ccccc3)C(C)C)=C21 (stereo not given)
The melting point of the first is lower: 125 to 127 °C for the first, 205 to 207 °C for the second.

First: O=C(O)c1ccc2cc(-c3ccc(OCCCO)c(C45CC6CC(CC(C6)C4)C5)c3)ccc2c1
Second: O=C(NC1CCN(CCCOc2ccccc2-c2ncc(C(=O)O)c(O)n2)CC1)c1ccccc1
The melting point of the first is higher: 277 to 279 °C for the first, 145 to 146 °C for the second.

Compared with CCc1nc2c(NC(=O)C(C)C)nc3ccccc3c2n1CCCCNS(C)(=O)=O, CCc1nc2c(N)nc3ccccc3c2n1CCCCS(=O)(=O)NCc1ccc(OC)cc1 is higher in melting point: 122 to 124 °C for the first, 176 to 177 °C for the second.

First: CCOc1ccc(N=c2ccn3ccccc3c2)cc1
Second: CCOC(=O)Cc1cccc2c(-c3ccccc3)nccc12
The melting point of the first is higher: 157 to 159 °C for the first, 141 °C for the second.

First: Fc1ccc(-c2c[nH]c(C3CCN(CC4CCCCC4)CC3)n2)cc1
Second: NS(=O)(=O)Oc1ccc2c(C3CCCCC3)csc2c1
The melting point of the first is higher: 220 to 222 °C for the first, 128 °C for the second.

Compared with C=CCOc1ccc(C)c2c1C(=O)CC2, Cc1ccc2c(c1)C(=O)N(CCO[N+](=O)[O-])CO2 is lower in melting point: 89 to 92 °C for the first, 76 to 78 °C for the second.

First: COc1cnc(-c2cccn3nc(C4(C5CCNCC5)C=CC(N)=CC4)nc23)cn1 (stereo not given)
Second: COc1ccc2c(c1)C1(CCCCc3ccccc31)NC2=O (stereo not given)
The melting point of the first is higher: 219 to 221 °C for the first, 189 to 190 °C for the second.

First: Fc1cccc(F)c1CN[C@H]1CCCN[C@H]1c1ccccc1 (relative stereo)
Second: Cc1cccc(CC(=S)Nc2ccccc2C(=O)O)c1
The melting point of the first is higher: > 260 °C for the first, 148 to 150 °C for the second.

Compared with Cc1nc2c(N)nc3ccccc3c2n1CCOCCNC(=O)Nc1ccccc1, O=C(O)[C@@H]1CCc2ccccc2N1C(=O)OCc1ccccc1 is lower in melting point: 193 to 195 °C for the first, 75 to 79 °C for the second.

Compared with COCc1cccc2sc(C(=O)O)cc12, COC(=O)c1ccc2c(c1)CCN2Cc1cccc([N+](=O)[O-])c1 is lower in melting point: 212 to 214 °C for the first, 99 to 100 °C for the second.

First: CC1N=C(N2CCN(CCO)CC2)NN=C1c1ccccc1 (stereo not given)
Second: CCCCNC(=O)c1cnc2ccccn2c1=O
The melting point of the first is lower: 103 to 105 °C for the first, 127 to 130 °C for the second.

First: CN(C)c1ccc(C2(Oc3ccccc3)OC(=O)c3ccc(N(C)C)cc32)cc1 (stereo not given)
Second: O=C(O)COc1ccc(-c2c3ccc(OCC(=O)O)cc3cc3sc4ccccc4c23)cc1
The melting point of the first is lower: 158 to 159 °C for the first, 245 to 246 °C for the second.

First: COc1cc2c(cc1Nc1ncc(Cl)c(Nc3ccccc3S(=O)(=O)N(C)C)n1)CCNC(=O)C2
Second: CC(C)N1C(=O)CCCc2cc(Nc3ncc(Cl)c(NC4C5C=CC(C5)C4C(N)=O)n3)ccc21 (stereo not given)
The melting point of the first is lower: 190 to 195 °C for the first, 260 °C for the second.

First: CCS(=O)c1nsc(NC(=O)NC)c1C(N)=O (stereo not given)
Second: CCOC(=O)c1c(C(F)F)nc(C(F)(F)F)c(C(=O)OCC)c1Cl
The melting point of the first is higher: 245 °C for the first, 35 to 40 °C for the second.

First: O=C(Nc1ccc(-n2nc(C(F)(F)F)cc2C(F)(F)F)cc1)c1ccc(F)c(C(F)(F)F)c1
Second: CCCCc1nn(-c2cc(NC(C)=O)ccc2Cl)c(=O)n1Cc1ccc(-c2cc(CCC)ccc2S(=O)(=O)NC(C)(C)C)cc1F
The melting point of the first is higher: 142 to 144 °C for the first, 125 to 128 °C for the second.

First: CC(Cl)(Cl)C(NC(=O)c1cc(F)cc(F)c1)NC(=NC#N)Nc1ccc(Cl)nc1 (stereo not given)
Second: CCn1cc(C(=O)NCc2ccc(Cl)cc2)c(=O)c2cc(C#CCCO)sc21
The melting point of the first is higher: 195 to 196 °C for the first, 158 to 162 °C for the second.

First: CNc1nc(-c2cncc(-c3ccccc3)c2)c2cc(OC)c(OC)cc2n1
Second: COc1ccc(-c2cc(=O)n(CC=Cc3ccc(Cl)cc3)nc2-c2ccc(OC)c(F)c2)cc1
The melting point of the first is higher: 177 to 179 °C for the first, 144 to 145 °C for the second.

First: CCSc1nc2c(C(=S)OC)sc(C)c2[nH]1
Second: Cc1ccc2cc(CC(=O)O)c(=O)[nH]c2n1
The melting point of the first is lower: 170 to 172 °C for the first, > 250 °C for the second.

First: O=[N+]([O-])c1cccc(NN=C(c2ccc(Cl)cc2)c2ccc(Cl)cc2)c1
Second: COC(=O)C1=C(C)NC(C)=C(C(=O)OCC(C)=O)C1c1cccc([N+](=O)[O-])c1 (stereo not given)
The melting point of the first is higher: 170 to 172 °C for the first, 139 °C for the second.

First: CCCOc1nc(N)c2ncn(C3CCCCC3)c2n1
Second: COc1c(N2CCC(CN)(CF)C2)c(F)cc2c(=O)c(C(=O)O)cn(C3CC3)c12 (stereo not given)
The melting point of the first is lower: 146 to 148 °C for the first, 188 to 190 °C for the second.

Compared with Cc1ccc(CN(Cc2ccc(C)cc2)c2nccc(-c3ccc(-c4ccc(N(c5ccccc5)c5ccccc5)cc4)cc3)n2)cc1, ClCc1cn(C(c2ccccc2)(c2ccccc2)c2ccccc2)cn1 is lower in melting point: 153 to 154 °C for the first, 88 to 91 °C for the second.

First: CC(C)OC(=O)c1cc(-n2c(=O)[nH]c3c(c2=O)CCC3)c(Cl)cc1Br
Second: O=C1CCc2cc(Br)c(NC(=O)C(F)(F)F)cc21
The melting point of the first is lower: 208 to 210 °C for the first, 220 °C for the second.

Compared with CC(CCC(=O)O)C1CCC2C3CCC4CC(OC=O)CCC4(C)C3CC(OC=O)C12C (stereo not given), CC(=O)CC(=O)OC(C)N=C(O)c1cc(C(=N)O)c(C(=O)O)cc1C(=O)O (stereo not given) is higher in melting point: 123 to 125 °C for the first, 161 to 163 °C for the second.

Compared with Cc1ccc(N2C(=O)C(O)=C(C(=O)c3ccc(C(C)C)cc3)C2c2ccc(Cn3cnnn3)cc2)nn1 (stereo not given), COCC(C)N(Cc1ccc(OC)c(OC)c1)C(=O)C(Cl)Cl (stereo not given) is lower in melting point: > 300 °C for the first, 75 to 76 °C for the second.

CCCCc1nc2sccc2[nH]1 and O=[N+]([O-])c1ccc2nc(CO)[nH]c2c1 cannot be ordered by melting point: 160 °C for the first, 157 to 162 °C for the second.

First: O=C(O)c1cc(CCl)cnc1C(=O)O
Second: N#Cc1cc(C(=O)O)c2c(c1)C(C(=O)O)CCN2 (stereo not given)
The melting point of the first is lower: 170 to 172 °C for the first, 235 to 236 °C for the second.

First: CCCCn1c(NNC(=S)NC(C)=O)cc(=O)n(CCC)c1=O
Second: COc1cc(C)c(C(=O)O)c(OC)c1OC
The melting point of the first is higher: 149 to 152 °C for the first, 95 to 97 °C for the second.
